From patent US20250381274A1 (priority 2022, published 2025)
Values joined by “and” are separate entries in the source; they are usually repeats but may differ in a detail not shown here. Identical values can stand only once. “Also recorded” adds a separate entry of the source. Like-named read-outs stand apart in the source and are kept apart here.

Assays:
corneal buttons = tested on: corneal buttons; set-up: species or system rabbit
Description: • 3 rabbits, (n=8 pairs of 3 mm biopsy punched corneal buttons) • Laser Treatments: • Fidelity II, 1069 nm, 450 mW • Focusing: Marker/spark around, not touching the tissue • Objective: ZEISS 40X, NA=0.1463 • Z: increments 20 μm, 5 layers (several intervals) • 1stlayer 15 μm below surface of focus sparking • XY: 10 μm zigzag grid, 3 mm radius circle • With ˜12 gram compression • Motor speed 2.6 mm/s, full circle treatments: ˜25*5 mins • Sample Preparation: • −3 mm biopsy punch (1BT) • not connected to IV system • Prior to LT: 30 mins in 20% w/w Dextran 500 in PBS • 30 mins in 20% w/w ribose in DPBS (˜1.7M) • Post LT: Trypan blue is used to mark endothelium side • Imaged on the same day in DPBS • Overnight storage in DPBS in 4C fridge • 3 hrs prior to indentation, in room temp PBS • Piuma nano-indentation: • For each cornea button, the average of up to 16 indentations are acquired as
• 3 rabbits, (n=10 pairs of 3 mm biopsy punched corneal buttons) • 3 mm biopsy punch • not connected to IV system • Treatment Protocol-1 hr submerged in 20% w/v Ribose for all samples • 1 hr of UV-A lamp irradiation (control was not under UV) • Post Treatment Trypan blue is used to mark endothelium side • Imaged on the same day in DPBS • Overnight storage in DPBS in 4C fridge • 3 hrs prior to indentation, in room temp PBS • Piuma nano-indentation: • For each cornea button, the average of up to 16 indentations are acquired as representative modulus • The average of the representative modulus are presented in appended FIGS. 1-25.
Nano-Indentation: The corneal buttons were stored in PBS in a 4C fridge overnight for hydration equilibrium. Indentations of 5 μm depth using 29-35 μm diameter spherical indenters were performed on the anterior surface of the cornea buttons to acquire 25-second load-relaxation curves. For each button, the average of up to 16 indentations was used as the representative result. The equilibrium modulus and the viscoelastic ratio, defined as equilibrium modulus over instantaneous modulus, were calculated and compared.
Nanoindentation: Indentations were performed on the anterior surface of the cornea buttons. The equilibrium modulus E∞, instantaneous modulus Eo, and the viscoelastic ratio E∞/Eo, were calculated and compared.
After overnight incubation in PBS at 4C to reach equilibrium hydration, corneal buttons in Group A were allowed to return to room temperature the next morning after the respective treatment days while glued to the bottom of a petri-dish with the anterior surface of the corneal button facing upward. A displacement-controlled indenter (Piuma, Optics 11, Amsterdam, The Netherlands) was used to perform micro-indentations on top of the sample surface submerged in PBS; for each sample, multiple tests were performed following an array of 16 equally spaced (4×4) contact points with a spacing of 100 μm to 150 μm, covering roughly a 0.4×0.4 mm^2 area at the center of each corneal button. A spherical glass probe with a 34 μm radius and 0.2 N/m stiffness was used for samples in Group 1A; another spherical glass probe with a 25.5 μm radius and 4.09 N/m stiffness was used for Group 1B, 1C, 1D, and 2C. The indentation process at each contact point was comprised of three consecutive steps of loading Piezo movement of 5 μm for 2 seconds, holding time of 5 s, and unloading for 2 seconds. The load-relaxation curves obtained after indenting each point were then processed using a viscoelastic model to obtain equilibrium modulus and viscoelastic ratio following a fitting algorithm developed by Oyen.

corneal tissues = assay: Multiphoton/confocal imaging: autofluorescence and second harmonic generation signal; set-up: species or system rabbit; settings: anterior 100 μm
Description: • The grey value of the top 100 μm (11 Z-stacks) of the cornea button was summed; • The average of the grey value summations are presented in appended FIGS. 1-25. • […] • The average of the grey value summations and Representative images at ˜600*600*100 μm in x, y, z are presented in appended FIGS. 1-25. The autofluorescence and second harmonic generation (SHG) signals of the corneal tissues in Group A were investigated to reveal the presence of CxLs and structural changes in collagenous ECM after hydration equilibrium in PBS on the same night of individual treatment days. Imaging was performed with a Nikon TI Eclipse inverted microscope using a Ti: Sapphire laser Chameleon Ultra II at 860 nm as the light source and a Nikon Apo LWD 20× objective for focusing. The emission filter was set at the FITC channel (475-650 nm, peak 525 nm) for autofluorescence signal collection and at the DAPI channel (400-600 nm, peak at 457 nm) for SHG signal collection. The XY scanning area for each sample was 635 μm by 635 μm, and Z scanning was 100 μm deep with 10 μm increments (stack of 11 images per sample). The summation of the average grey value processed in Image J at each layer was used as the representative signal strength for each sample.

[1] = 20% ribose 1 hr + 365 nm UVA lamp 1 hr
[2] = 20% ribose + 400 nm femtosecond laser
[3] = 20% ribose + 1069 nm femtosecond laser
[4] = 20% ribose + 1069 nm femtosecond laser, listed as Ribose
[5] = ribose + 365 nm UVA lamp, listed as Ribose
[6] = ribose + 400 nm femtosecond laser
[7] = ribose + 1069 nm femtosecond laser
[8] = ribose + 1069 nm femtosecond laser, listed as Ribose

O=C[C@H](O)[C@H](O)[C@H](O)CO [ribose]
instantaneous modulus change vs paired control (corneal buttons; [1]): significantly increased
viscoelastic ratio change vs paired control (words) (corneal buttons; [1]): no change; also recorded: no significant E∞/Eo difference; also recorded: No significant changes; also recorded: None of the ROS-Glycation-CxL treatments produced a significant difference
equilibrium modulus change vs paired control (words) (corneal buttons; 20% ribose 1 hr + 365 nm UVA lamp 1 hr, coverslip): significantly increased; also recorded: significantly higher; also recorded: statistically significant differences
equilibrium modulus change vs paired control (words) (corneal buttons; 20% ribose 1 hr + 365 nm UVA lamp 1 hr, coverslip, listed as Ribose): significantly increased
viscoelastic ratio change vs paired control (words) (corneal buttons; 20% ribose 1 hr + 365 nm UVA lamp 1 hr, listed as Ribose): not significantly changed
equilibrium modulus change vs paired control (words) (corneal buttons; [2]): significantly higher; also recorded: statistically significant differences
viscoelastic ratio change vs paired control (words) (corneal buttons; [2]): No significant changes; also recorded: None of the ROS-Glycation-CxL treatments produced a significant difference
equilibrium modulus change vs paired control (words) (corneal buttons; [3]): significantly higher; also recorded: statistically significant differences
instantaneous modulus change vs paired control (corneal buttons; [3]): significantly increased
viscoelastic ratio change vs paired control (words) (corneal buttons; [3]): No significant changes; also recorded: None of the ROS-Glycation-CxL treatments produced a significant difference
equilibrium modulus change vs paired control (words) (corneal buttons; [4]): significantly increased
viscoelastic ratio change vs paired control (words) (corneal buttons; [4]): not significantly changed
equilibrium modulus (corneal buttons; Group 1A: 20% ribose PBS 1 hr, then 1069 nm femtosecond laser 450 mW, coverslip pressed): 25 kPa and 26.7 kPa
equilibrium modulus (corneal buttons; Group 1B: 20% ribose PBS 1 hr, then 400 nm femtosecond laser, coverslip pressed): 60 kPa and 63.2 kPa
equilibrium modulus (corneal buttons; Group 1C: 20% ribose PBS 1 hr, then 365 nm UVA lamp 1 hr, coverslip pressed): 100 kPa and 115.3 kPa
equilibrium modulus, 1.5 hr vs 3 hr irradiation (corneal buttons; Group 2C: ribose + 365 nm UVA lamp 1.5 hours vs 3 hours): no significant difference in mechanical properties; also recorded: no different in equilibrium modulus
viscoelastic ratio, 3 hr vs 1.5 hr irradiation (corneal buttons; Group 2C: ribose + 365 nm UVA lamp 3 hours vs 1.5 hours): significantly higher viscoelastic ratio; also recorded: significant difference
equilibrium modulus, fold of control's modulus (corneal buttons; ribose + 400 nm laser at 100 mW vs ribose-only control): ~4.6 fold
equilibrium modulus, fold of control's modulus (corneal buttons; ribose + 1060 nm laser at 450 mW vs ribose-only control): ~3.8 fold
equilibrium modulus, fold of paired control modulus (corneal buttons; ribose + one-hour 365 nm UVA lamp vs ribose-only control): ~8.2 fold
equilibrium modulus (corneal buttons; ribose-only paired controls, no light exposure): around 10 kPa
autofluorescence signal intensity change vs paired control (words) (corneal tissues; ribose + 365 nm UVA lamp): increased significantly; also recorded: slightly increased; also recorded: Statistical significance
second harmonic generation signal intensity change vs paired control (words) (corneal tissues; ribose + 365 nm UVA lamp): decreased significantly; also recorded: statistically significant decreases; also recorded: Statistical significance
autofluorescence signal intensity change vs paired control (words) (corneal tissues; [5]): increased
second harmonic generation signal intensity change vs paired control (words) (corneal tissues; [5]): decreased
autofluorescence signal intensity change vs paired control (words) (corneal tissues; [6]): increased significantly; also recorded: slightly increased; also recorded: Statistical significance
second harmonic generation signal intensity change vs paired control (words) (corneal tissues; [6]): decreased significantly; also recorded: statistically significant decreases; also recorded: Statistical significance
autofluorescence signal intensity change vs paired control (words) (corneal tissues; [7]): increased significantly; also recorded: slightly increased; also recorded: Statistical significance
second harmonic generation signal intensity change vs paired control (words) (corneal tissues; [7]): decreased significantly; also recorded: statistically significant decreases; also recorded: Statistical significance
autofluorescence signal intensity change vs paired control (words) (corneal tissues; [8]): increased
second harmonic generation signal intensity change vs paired control (words) (corneal tissues; [8]): decreased
